Assay results from the NIST ThermoML archive (doi:10.1021/je800110r).
Several values for one entry are separate records, joined by “and”; a condition that tells them apart may be missing. Equal entries are not always repeated.

Settings: Liquid, Vibrating tube method

CCCCCCCCCC [decane]
Settings | mass density
313.14 K, 33167 kPa | 739.6 kg/m3
313.14 K, 33192 kPa | 739.6 kg/m3
313.14 K, 33228 kPa | 739.6 kg/m3
313.14 K, 33249 kPa | 739.6 kg/m3
313.14 K, 33282 kPa | 739.6 kg/m3
313.14 K, 33310 kPa | 739.6 kg/m3
313.14 K, 33326 kPa | 739.8 kg/m3
313.14 K, 33356 kPa | 739.6 kg/m3
313.14 K, 33377 kPa | 739.6 kg/m3
313.14 K, 33399 kPa | 739.8 kg/m3
313.14 K, 33423 kPa | 739.6 kg/m3
313.14 K, 33447 kPa | 739.8 kg/m3
313.14 K, 33472 kPa | 739.7 kg/m3
313.14 K, 33490 kPa | 739.8 kg/m3
313.14 K, 33518 kPa | 739.7 kg/m3
313.14 K, 33536 kPa | 739.8 kg/m3
313.14 K, 33561 kPa | 739.7 kg/m3
313.14 K, 33582 kPa | 739.8 kg/m3
313.14 K, 33604 kPa | 739.9 kg/m3
313.14 K, 33629 kPa | 739.9 kg/m3
313.14 K, 33657 kPa | 740 kg/m3
313.14 K, 33682 kPa | 739.9 kg/m3
313.14 K, 33707 kPa | 739.8 kg/m3
313.14 K, 33726 kPa | 739.8 kg/m3
313.14 K, 33748 kPa | 739.9 kg/m3
313.14 K, 33766 kPa | 739.6 kg/m3
313.14 K, 33782 kPa | 739.9 kg/m3
313.14 K, 33804 kPa | 740 kg/m3
313.14 K, 33832 kPa | 740 kg/m3
313.14 K, 33858 kPa | 740 kg/m3
313.14 K, 33880 kPa | 740 kg/m3
313.14 K, 33906 kPa | 740.1 kg/m3
313.14 K, 33924 kPa | 740.1 kg/m3
313.14 K, 33950 kPa | 740 kg/m3
313.14 K, 33978 kPa | 740.2 kg/m3
313.14 K, 33997 kPa | 740.1 kg/m3
313.14 K, 34023 kPa | 740.1 kg/m3
313.14 K, 34043 kPa | 740.1 kg/m3
313.14 K, 34066 kPa | 740.1 kg/m3
313.14 K, 34082 kPa | 740.2 kg/m3
313.14 K, 34105 kPa | 740.2 kg/m3
313.14 K, 34131 kPa | 740.1 kg/m3
313.14 K, 34158 kPa | 740.3 kg/m3
313.14 K, 34181 kPa | 740.1 kg/m3
313.14 K, 34211 kPa | 740.2 kg/m3
313.14 K, 34231 kPa | 740.2 kg/m3
313.14 K, 34264 kPa | 740.2 kg/m3
313.14 K, 34281 kPa | 740.2 kg/m3
313.14 K, 34305 kPa | 740.2 kg/m3
313.14 K, 34333 kPa | 740.3 kg/m3
313.14 K, 34358 kPa | 740.4 kg/m3
313.14 K, 34391 kPa | 740.4 kg/m3
313.14 K, 34414 kPa | 740.4 kg/m3
313.14 K, 34437 kPa | 740.4 kg/m3
313.14 K, 34466 kPa | 740.4 kg/m3
313.14 K, 34503 kPa | 740.5 kg/m3
313.14 K, 34520 kPa | 740.4 kg/m3
313.14 K, 34543 kPa | 740.4 kg/m3
313.14 K, 34560 kPa | 740.5 kg/m3
313.14 K, 34566 kPa | 740.4 kg/m3
313.14 K, 34568 kPa | 740.5 kg/m3
313.14 K, 34571 kPa | 740.4 kg/m3 and 740.5 kg/m3
313.15 K, 1010 kPa | 715.4 kg/m3
313.15 K, 1032 kPa | 715.4 kg/m3
313.15 K, 1055 kPa | 715.5 kg/m3
313.15 K, 1082 kPa | 715.5 kg/m3
313.15 K, 1102 kPa | 715.4 kg/m3
313.15 K, 1122 kPa | 715.5 kg/m3
313.15 K, 1147 kPa | 715.6 kg/m3
313.15 K, 1182 kPa | 715.5 kg/m3
313.15 K, 1217 kPa | 715.7 kg/m3
313.15 K, 1254 kPa | 715.6 kg/m3
313.15 K, 3801 kPa | 717.9 kg/m3
313.15 K, 6798 kPa | 720.3 kg/m3
313.15 K, 6849 kPa | 720.5 kg/m3
313.15 K, 6918 kPa | 720.6 kg/m3
313.15 K, 6929 kPa | 720.5 kg/m3
313.15 K, 7976 kPa | 721.4 kg/m3
313.15 K, 7995 kPa | 721.4 kg/m3
313.15 K, 8013 kPa | 721.4 kg/m3
313.15 K, 8034 kPa | 721.4 kg/m3
313.15 K, 8045 kPa | 721.4 kg/m3
313.15 K, 8059 kPa | 721.4 kg/m3
313.15 K, 8073 kPa | 721.5 kg/m3
313.15 K, 8087 kPa | 721.4 kg/m3
313.15 K, 8102 kPa | 721.4 kg/m3
313.15 K, 8113 kPa | 721.4 kg/m3
313.15 K, 8129 kPa | 721.5 kg/m3
313.15 K, 8649 kPa | 721.9 kg/m3
313.15 K, 8666 kPa | 721.9 kg/m3
313.15 K, 8707 kPa | 721.7 kg/m3
313.15 K, 15697 kPa | 727.3 kg/m3
313.15 K, 15727 kPa | 727.5 kg/m3
313.15 K, 15757 kPa | 727.3 kg/m3
313.15 K, 15781 kPa | 727.5 kg/m3
313.15 K, 15816 kPa | 727.6 kg/m3
313.15 K, 15846 kPa | 727.6 kg/m3
313.15 K, 15873 kPa | 727.6 kg/m3
313.15 K, 17591 kPa | 728.8 kg/m3
313.15 K, 17641 kPa | 728.9 kg/m3
313.15 K, 17664 kPa | 728.8 kg/m3
313.15 K, 17686 kPa | 728.8 kg/m3
313.15 K, 17711 kPa | 728.9 kg/m3
313.15 K, 17734 kPa | 728.9 kg/m3
313.15 K, 20359 kPa | 730.9 kg/m3
313.15 K, 20406 kPa | 730.9 kg/m3
313.15 K, 20562 kPa | 730.8 kg/m3
313.15 K, 20961 kPa | 731.3 kg/m3
313.15 K, 20986 kPa | 731.2 kg/m3
313.15 K, 21097 kPa | 731.3 kg/m3
313.15 K, 21119 kPa | 731.3 kg/m3
313.15 K, 21249 kPa | 731.5 kg/m3
313.15 K, 21278 kPa | 731.5 kg/m3
313.15 K, 21337 kPa | 731.5 kg/m3
313.15 K, 21367 kPa | 731.5 kg/m3
313.15 K, 21711 kPa | 731.8 kg/m3
313.15 K, 21800 kPa | 731.8 kg/m3
313.15 K, 22455 kPa | 732.2 kg/m3
313.15 K, 22492 kPa | 732.4 kg/m3
313.15 K, 22548 kPa | 732.4 kg/m3
313.15 K, 22615 kPa | 732.4 kg/m3
313.15 K, 22970 kPa | 732.6 kg/m3
313.15 K, 22997 kPa | 732.7 kg/m3
313.15 K, 23029 kPa | 732.6 kg/m3
313.15 K, 23052 kPa | 732.6 kg/m3
313.15 K, 23072 kPa | 732.7 kg/m3
313.15 K, 23096 kPa | 732.7 kg/m3
313.15 K, 23131 kPa | 732.8 kg/m3
313.15 K, 23163 kPa | 732.8 kg/m3
313.15 K, 23183 kPa | 732.9 kg/m3
313.15 K, 23218 kPa | 732.9 kg/m3
313.15 K, 23249 kPa | 732.9 kg/m3
313.15 K, 23281 kPa | 733 kg/m3
313.15 K, 23309 kPa | 732.8 kg/m3
313.15 K, 23338 kPa | 733 kg/m3
313.15 K, 23370 kPa | 733 kg/m3
313.15 K, 25526 kPa | 734.6 kg/m3
